Legend:
Format in all cases: in vivo
[1] = test system: Oryza sativa (ORYSA); test: Post-emergence crop plant compatibility, greenhouse pot test (also comparative test C); settings: for Post-emergence action against ORYSA (crop plant compatibility): vs untreated controls
Procedure, shortened: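 Visual damage versus untreated plants (0% = like control, 100% = plants died) was scored about 3 weeks after a post-emergence spray in greenhouse pots. Treatment: one-leaf stage, WP or EC in water at 600 l/ha with 0.5% additive; a/b/c mark different dosages on the same crop.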

[2] = test system: Zea mays (ZEAMX); test: Post-emergence crop plant compatibility, greenhouse pot test; settings: 1.25 g/ha, vs untreated controls
Procedure, shortened: (§1)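 Values are visual % damage versus untreated controls (100% = plants died) about 3 weeks after treatment. Plants in sandy loam were sprayed at the one-leaf stage, 2–3 weeks after sowing, with aqueous WP/EC preparations plus 0.5% additive at 600 l/ha; a/b/c mark different dose levels.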

[3] = test system: Triticum aestivum (TRZAS); test: as above; settings: vs untreated controls
Procedure, shortened: as §1

[4] = test system: Alopecurus myosuroides (ALOMY); test: Post-emergence herbicidal action, greenhouse pot test (also comparative test C); settings: rated visually after about 3 weeks vs untreated controls, 100% = plants have died
Procedure, shortened: (§2)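 Greenhouse pot plants in sandy loam were sprayed post-emergence at the one-leaf stage (2–3 weeks after sowing) with WP or EC formulations plus 0.5% additive at 600 l/ha water. Activity was rated visually after about 3 weeks versus untreated controls (100% = dead, 0% = like control); rates were 20 g/ha or less, and 5 g/ha or less in the comparative test.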

[5] = test system: Setaria viridis (SETVI); test: as above; settings: for Post-emergence action against SETVI: 20 g/ha
Procedure, shortened: as §2

[6] = test system: Matricaria inodora (MATIN); test: as above
Procedure, shortened: as §2

[7] = test system: Echinochloa crus-galli (ECHCG); test: as above; settings: for Post-emergence action at 1.25 g/ha against ECHCG in %: rated visually after about 3 weeks vs untreated controls, 100% = plants have died
Procedure, shortened: as §2

[8] = test system: Abutilon theophrasti (ABUTH); test: Post-emergence herbicidal action, greenhouse pot test; settings: rated visually after about 3 weeks vs untreated controls, 100% = plants have died
Procedure, shortened: (§3)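 Activity was scored by eye about 3 weeks after treatment against untreated plants, where 100% means dead plants and 0% means no difference. Plants at the one-leaf stage received a foliar spray of WP or EC formulations in water plus 0.5% additive (600 l/ha, up to 20 g/ha). Plants were grown in sandy loam pots in a greenhouse for 2–3 weeks before spraying.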

[9] = test system: Polygonum convolvulus (POLCO); test: as above
Procedure, shortened: as §3

[10] = test system: Viola tricolor (VIOTR); test: as above
Procedure, shortened: as §3

[11] = test system: Avena fatua (AVEFA); test: as above; settings: rated visually after about 3 weeks vs untreated controls, 100% = plants have died
Procedure, shortened: as §3

[12] = test system: Amaranthus retroflexus (AMARE); test: as above; settings: rated visually after about 3 weeks vs untreated controls, 100% = plants have died
Procedure, shortened: as §3

[13] = test system: Lolium rigidum (LOLRI); test: as above; settings: dosage 20 g/ha
Procedure, shortened: as §3

[14] = test system: Pharbitis purpurea (PHBPU); test: as above
Procedure, shortened: as §3

[15] = test system: Veronica persica (VERPE); test: as above
Procedure, shortened: as §3

Compound | Post-emergence action against ORYSA (crop plant compatibility) ([1]; 1.25 g/ha) | Post-emergence action at 5 g/ha against ALOMY in % [4] | Post-emergence action at 20 g/ha against ALOMY in % [4] | Post-emergence action against SETVI [5] | Post-emergence action against SETVI in % ([5]; dosage 1.25 g/ha) | Post-emergence action against SETVI in % ([5]; dosage 5 g/ha) | Post-emergence action against MATIN in % ([6]; dosage 20 g/ha) | Post-emergence action against ECHCG in % ([7]; dosage 5 g/ha) | Post-emergence action against ECHCG in % ([7]; dosage 20 g/ha) | Post-emergence action at 1.25 g/ha against ABUTH in % [8] | Post-emergence action at 5 g/ha against ABUTH in % [8] | Post-emergence action at 20 g/ha against ABUTH in % [8] | Post-emergence action against POLCO in % ([9]; dosage 20 g/ha) | Post-emergence action against VIOTR ([10]; 1.25 g/ha) | Post-emergence action against VIOTR ([10]; 5 g/ha) | Post-emergence action against VIOTR ([10]; 20 g/ha) | Post-emergence action at 20 g/ha against AVEFA in % [11] | Post-emergence action at 1.25 g/ha against AMARE in % [12] | Post-emergence action at 5 g/ha against AMARE in % [12] | Post-emergence action at 20 g/ha against AMARE in % [12] | further results
CCOCCOC(=O)COc1ccccc1Oc1cc(-n2c(=O)cc(C(F)(F)F)n(C)c2=O)c(F)cc1Cl [I.7-2] | 0% | 80% | 100% | 100% | 100% | 100% | 100% | 100% | 100% | 100% | 100% | 100% | 100% | 100% | 100% | 100% | 90% | 100% | 100% | 100% | Post-emergence action against ZEAMX (crop plant compatibility) [2]: 0%; Post-emergence action against TRZAS (crop plant compatibility) ([3]; 1.25 g/ha): 20%; Post-emergence action against TRZAS (crop plant compatibility) ([3]; 5 g/ha): 20%; Post-emergence action against MATIN in % ([6]; dosage 1.25 g/ha): 80%; Post-emergence action against MATIN in % ([6]; dosage 5 g/ha): 80%; Post-emergence action against LOLRI in % [13]: 80%; Post-emergence action against PHBPU in % ([14]; dosage 1.25 g/ha): 100%; Post-emergence action against PHBPU in % ([14]; dosage 5 g/ha): 100%; Post-emergence action against PHBPU in % ([14]; dosage 20 g/ha): 100%; Post-emergence action against VERPE ([15]; 1.25 g/ha): 80%; Post-emergence action against VERPE ([15]; 5 g/ha): 100%; Post-emergence action against VERPE ([15]; 20 g/ha): 100%
CCOCCOC(=O)COc1ccccc1Oc1cc(-n2c(=O)cc(C(F)(F)F)n(C)c2=O)c(F)cc1Br [I.8-2] | 0% | 100% | 100% | 100% | 100% | 100% | 100% | 100% | 100% | 100% | 100% | 100% | 100% | 100% | 100% | 100% | 100% | 100% | 100% | 100% | Post-emergence action against ORYSA (crop plant compatibility) ([1]; 5 g/ha): 0%; Post-emergence action against ZEAMX (crop plant compatibility) [2]: 20%; Post-emergence action at 1.25 g/ha against ALOMY in % [4]: 80%; Post-emergence action against MATIN in % ([6]; dosage 1.25 g/ha): 100%; Post-emergence action against MATIN in % ([6]; dosage 5 g/ha): 100%; Post-emergence action against POLCO in % ([9]; dosage 5 g/ha): 100%; Post-emergence action against LOLRI in % [13]: 90%; Post-emergence action against PHBPU in % ([14]; dosage 1.25 g/ha): 100%; Post-emergence action against PHBPU in % ([14]; dosage 5 g/ha): 100%; Post-emergence action against PHBPU in % ([14]; dosage 20 g/ha): 100%; Post-emergence action against VERPE ([15]; 1.25 g/ha): 100%; Post-emergence action against VERPE ([15]; 5 g/ha): 100%; Post-emergence action against VERPE ([15]; 20 g/ha): 100%
Cn1c(C(F)(F)F)cc(=O)n(-c2cc(Oc3ccccc3OCC(=O)OCc3cccnn3)c(C#N)cc2F)c1=O [I.9-291] | 0% | 90% | 100% | 100% | 100% | 100% | 100% | 90% | 100% | 100% | 100% | 100% | 100% | 100% | 100% | 100% | 80% | 100% | 100% | 100% | Post-emergence action against ORYSA (crop plant compatibility) ([1]; 5 g/ha): 0%; Post-emergence action against ORYSA in % ([1]; 20 g/ha, crop plant compatibility): 20%; Post-emergence action against TRZAS (crop plant compatibility) ([3]; 1.25 g/ha): 20%; Post-emergence action against TRZAS (crop plant compatibility) ([3]; 5 g/ha): 20%; Post-emergence action at 1.25 g/ha against ALOMY in % [4]: 80%; Post-emergence action against MATIN in % ([6]; dosage 5 g/ha): 80%; Post-emergence action against POLCO in % ([9]; dosage 1.25 g/ha): 80%; Post-emergence action against POLCO in % ([9]; dosage 5 g/ha): 90%; Post-emergence action at 5 g/ha against AVEFA in % ([11]; 5 g/ha): 80%; Post-emergence action against LOLRI in % [13]: 90%; Post-emergence action against PHBPU in % ([14]; dosage 1.25 g/ha): 100%; Post-emergence action against PHBPU in % ([14]; dosage 5 g/ha): 100%; Post-emergence action against PHBPU in % ([14]; dosage 20 g/ha): 100%; Post-emergence action against VERPE ([15]; 1.25 g/ha): 100%; Post-emergence action against VERPE ([15]; 5 g/ha): 100%; Post-emergence action against VERPE ([15]; 20 g/ha): 100%
Cn1c(C(F)(F)F)cc(=O)n(-c2cc(Oc3ccccc3OCC(=O)OCc3ccncc3)c(Cl)cc2F)c1=O [I.7-278] | 0% | 90% | 100% | 100% | 100% | 100% | 100% | 100% | 100% | 100% | 100% | 100% | 100% | 90% | 100% | 100% | 80% | 100% | 100% | 100% | Post-emergence action against ZEAMX (crop plant compatibility) [2]: 0%; Post-emergence action against MATIN in % ([6]; dosage 5 g/ha): 80%; Post-emergence action at 1.25 g/ha against ECHCG in % [7]: 80%; Post-emergence action against POLCO in % ([9]; dosage 5 g/ha): 80%; Post-emergence action against LOLRI in % [13]: 80%; Post-emergence action against PHBPU in % ([14]; dosage 1.25 g/ha): 100%; Post-emergence action against PHBPU in % ([14]; dosage 5 g/ha): 100%; Post-emergence action against PHBPU in % ([14]; dosage 20 g/ha): 100%; Post-emergence action against VERPE ([15]; 1.25 g/ha): 100%; Post-emergence action against VERPE ([15]; 5 g/ha): 100%; Post-emergence action against VERPE ([15]; 20 g/ha): 100%
Cn1c(C(F)(F)F)cc(=O)n(-c2cc(Oc3ccccc3OCC(=O)OCc3cccnn3)c(Br)cc2F)c1=O [I.8-291] | 0% | 90% | 100% | 100% | 100% | 100% | 100% | 100% | 100% | 100% | 100% | 100% | 100% | 100% | 100% | 100% | 90% | 100% | 100% | 100% | Post-emergence action against ORYSA (crop plant compatibility) ([1]; 5 g/ha): 20%; Post-emergence action against TRZAS (crop plant compatibility) ([3]; 1.25 g/ha): 10%; Post-emergence action against TRZAS (crop plant compatibility) ([3]; 5 g/ha): 20%; Post-emergence action at 1.25 g/ha against ALOMY in % [4]: 80%; Post-emergence action at 1.25 g/ha against ECHCG in % [7]: 100%; Post-emergence action against POLCO in % ([9]; dosage 5 g/ha): 100%; Post-emergence action against LOLRI in % [13]: 80%; Post-emergence action against PHBPU in % ([14]; dosage 1.25 g/ha): 100%; Post-emergence action against PHBPU in % ([14]; dosage 5 g/ha): 100%; Post-emergence action against PHBPU in % ([14]; dosage 20 g/ha): 100%; Post-emergence action against VERPE ([15]; 1.25 g/ha): 100%; Post-emergence action against VERPE ([15]; 5 g/ha): 100%; Post-emergence action against VERPE ([15]; 20 g/ha): 100%

From patent US20240025862A1, “SUBSTITUTED N-PHENYLURACILS AND SALTS THEREOF, AND USE THEREOF AS HERBICIDAL ACTIVE SUBSTANCES” (Bayer Aktiengesellschaft, priority 2020, published 2024)
